Data as given in patent publication US20250002866A1, “CELL CULTURE PLATFORMS, METHODS AND USES THEREOF” (ACADEMIA SINICA, priority 2021, published 2025).

What was measured:
[1] = test system: CTC spheroid derived from blood samples of patient A; test: Ex vivo drug assay on CTC spheroids of patient A; type: cell-based, human; settings: for diameter and morphology of CTC spheroid: after treatment for 3 days, versus untreated mock group
Procedure: FIGS. 3A-F show the in vitro drug test results of CTC-derived spheroids and clinical-pathological results of the clinical patient. (A) The drug cytotoxicity assay results on the patient-derived CTC-originated spheroid of patient A. Six chemotherapeutic drugs were tested in this assay include oxaliplatin, docetaxel, doxorubicin, irinotecan, mitomycin-C, and 5-FU. (B and D) The image of the morphology of CTC-derived spheroids after drug panel treatment at day 3. Scale bar=20 μm. (C and E) The normalized viability of CTC-derived spheroids with indicated drug panel after 3 days of treatment. (F) The contrast-enhanced CT images before and after cisplatin/gemcitabine treatment of patient B.
In order to validate the ex vivo drug assay results, we tested single or combination therapeutic agents in CTC cultures derived from blood samples of patients. […] A designed ex vivo drug assay with both used and potential candidate drug panel including oxaliplatin, docetaxel, 5-FU, doxorubicin, mitomycin-c, and irinotecan was accomplished with time-dependent and dose-dependent manner (FIG. 3A). With regard to the cell morphology, the diameter of CTC spheroid derived from blood samples of patient A was about 30˜40 μm with an intact spheroid morphology in untreated mock group. […] The results highly match with the clinical treatment outcomes in the treatment resistance on the clinical used drugs. Therefore, doxorubicin was the related promising candidate drug among the un-used drugs (mitomycin-c and irinotecan) for next line treatment (FIG. 3B). Additional ex vivo drug test was also performed on patient B with urothelium cancer.
Spheroid formation on the culture platform of the invention. Collect the cell sample that would be used for cultivation on the culture platform of the invention in suspension medium. Add cell suspension medium into each well. The cells could be cultured under 37° C. incubator with humidified 5% CO2 atmosphere. Exchange half of the culture medium once or twice per week. The cultured spheroids (tumoroids) enables sustain in the culture platform of the invention for more than two weeks depends on the cell density and demand of the spheroid size.

cancer of patient A = test: Clinical treatment outcome of patient A; type: in vivo, human; settings: previous clinical treatment

O=c1[nH]cc(F)c(=O)[nH]1 [5-FU, fluorouracil]
diameter and morphology of CTC spheroid [1]: smaller than the mock group and became leakage in appearance | clinical treatment outcome (cancer of patient A): progression disease

CC(=O)O[C@@]12CO[C@@H]1C[C@H](O)[C@@]1(C)C(=O)[C@H](O)C3=C(C)[C@@H](OC(=O)[C@H](O)[C@@H](NC(=O)OC(C)(C)C)c4ccccc4)C[C@@](O)([C@@H](OC(=O)c4ccccc4)[C@H]21)C3(C)C [docetaxel]
clinical treatment outcome (cancer of patient A): progression disease

COc1cccc2c1C(=O)c1c(O)c3c(c(O)c1C2=O)C[C@@](O)(C(=O)CO)C[C@@H]3O[C@H]1C[C@H](N)[C@H](O)[C@H](C)O1 [doxorubicin]
spheroid viability ([1]; CTC spheroids of patient A under drug treatment): lower than 4% | diameter and morphology of CTC spheroid [1]: obvious broken morphology

O=C1[O][Pt]2([NH][C@@H]3CCCC[C@H]3[NH]2)[O]C1=O [oxaliplatin]
diameter and morphology of CTC spheroid [1]: smaller than the mock group and became leakage in appearance | clinical treatment outcome (cancer of patient A): progression disease
